Consider 22 compounds from patent publication US7592345B2, “Piperazine and [1,4]diazepan derivatives as NK antagonists” (Hoffmann-La Roche Inc., priority 2007, dated 2009).

The structures appear in SMILES notation.

For this assay, the target named is T1, recombinant human NK3 receptor (Homo sapiens, UniProt P29371).
T1 construct: expressed in transfected cells; host or cells: HEK293 cells (transient expression), membranes
T1 sequence (P29371 1-465): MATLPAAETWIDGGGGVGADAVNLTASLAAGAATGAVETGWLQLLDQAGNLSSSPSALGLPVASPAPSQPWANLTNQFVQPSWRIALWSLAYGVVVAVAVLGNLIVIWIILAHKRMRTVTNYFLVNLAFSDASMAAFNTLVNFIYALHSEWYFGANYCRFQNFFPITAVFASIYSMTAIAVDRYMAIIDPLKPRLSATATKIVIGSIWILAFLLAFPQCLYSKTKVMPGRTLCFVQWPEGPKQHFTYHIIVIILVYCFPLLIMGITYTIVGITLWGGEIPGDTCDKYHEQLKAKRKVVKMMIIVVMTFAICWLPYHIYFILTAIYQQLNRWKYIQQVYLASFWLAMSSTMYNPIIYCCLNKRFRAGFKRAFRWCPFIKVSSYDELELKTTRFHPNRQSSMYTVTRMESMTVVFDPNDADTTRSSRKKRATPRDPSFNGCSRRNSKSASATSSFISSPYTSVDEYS
Description: [3H]SR142801 competition binding assay. Conditions: [3H]SR142801, membranes from HEK293 cells transiently expressing recombinant human NK3 receptor; read-out: hNK3 Ki. As for the experimental part:
[^3H]SR142801 Competition Binding Assay
hNK3 receptor binding experiment were performed using [^3H]SR142801 (Catalog No. TRK1035, specific activity: 74.0 Ci/mmol, Amersham, GE Healthcare UK limited, Buckinghamshire, UK) and membrane isolated from HEK293 cells transiently expressing recombinant human NK3 receptor. After thawing, the membrane homogenates were centrifuged at 48,000×g for 10 min at 4° C., the pellets were resuspended in the 50 mM Tris-HCl, 4 mM MnCl2, 1 μM phosphoramidon, 0.1% BSA binding buffer at pH 7.4 to a final assay concentration of 5 μg protein/well. For inhibition experiments, membranes were incubated with [^3H]SR142801 at a concentration equal to KD value of radioligand and 10 concentrations of the inhibitory compound (0.0003-10 μM) (in a total reaction volume of 500 μl) for 75 min at room temperature (RT). At the end of the incubation, membranes were filtered onto unitfilter (96-well white microplate with bonded GF/C filter preincubated 1 h in 0.3% PEI+0.3% BSA, Packard BioScience, Meriden, Conn.) with a Filtermate 196 harvester (Packard BioScience) and washed 4 times with ice-cold 50 mM Tris-HCl, pH 7.4 buffer. Nonspecific binding was measured in the presence of 10 μM SB222200 for both radioligands. The radioactivity on the filter was counted (5 min) on a Packard Top-count microplate scintillation counter with quenching correction after addition of 45 μl of microscint 40 (Canberra Packard S. A., Zürich, Switzerland) and shaking for 1 h. Inhibition curves were fitted according to the Hill equation: y=100/(1+(x/IC50)^nH), where nH=slope factor using Excel-fit 4 software (Microsoft). IC50 values were derived from the inhibition curve and the affinity constant (Ki) values were calculated using the Cheng-Prussoff equation Ki=IC50/(1+[L]/KD) where [L] is the concentration of radioligand and KD is its dissociation constant at the receptor, derived from the saturation isotherm. All experiments were performed in duplicate and the mean±standard error (SEM) of the individual Ki values was calculated.

For `C[C@@H]1CN(CCC(C)(C(=O)N(C)Cc2ccc(C(F)(F)F)c(F)c2)c2ccc(Cl)c(Cl)c2)CCN1S(C)(=O)=O` (stereo partly drawn) [Example 40, 2-(3,4-Dichloro-phenyl)-N-(3-fluoro-4-trifluoromethyl-benzyl)-4-((R)-4-methanesulfonyl-3-methyl-piperazin-1-yl)-2,N-dimethyl-butyramide], the inhibition constant (Ki) was found to be 16.7 nM.

Turning to `C[C@@H]1CN(CCC(C)(C(=O)N(C)Cc2ccc(Cl)c(Cl)c2)c2ccc(Cl)c(Cl)c2)CCN1S(C)(=O)=O` (stereo partly drawn) [Example 41, N-(3,4-Dichloro-benzyl)-2-(3,4-dichloro-phenyl)-4-((R)-4-methanesulfonyl-3-methyl-piperazin-1-yl)-2,N-dimethyl-butyramide], the Ki was determined as 13.3 nM. For `C[C@@H]1CN(CCC(C)(C(=O)NCc2ccc(Cl)c(Cl)c2)c2ccc(Cl)c(Cl)c2)CCN1S(C)(=O)=O` (stereo partly drawn) [Example 42, N-(3,4-Dichloro-benzyl)-2-(3,4-dichloro-phenyl)-4-((R)-4-methanesulfonyl-3-methyl-piperazin-1-yl)-2-methyl-butyramide], the inhibition constant Ki was determined as 5.7 nM. With `C[C@@H]1CN(CCC(C)(C(=O)NCc2cccc(OC(F)F)c2)c2ccc(Cl)c(Cl)c2)CCN1S(C)(=O)=O` (stereo partly drawn) [Example 43, 2-(3,4-Dichloro-phenyl)-N-(3-difluoromethoxy-benzyl)-4-((R)-4-methanesulfonyl-3-methyl-piperazin-1-yl)-2-methyl-butyramide], the inhibitory constant (Ki) turned out to be 99.9 nM. As for `C[C@@H]1CN(CCC(C)(C(=O)NCc2cc(F)ccc2C(F)(F)F)c2ccc(Cl)c(Cl)c2)CCN1S(C)(=O)=O` (stereo partly drawn) [Example 44, 2-(3,4-Dichloro-phenyl)-N-(5-fluoro-2-trifluoromethyl-benzyl)-4-((R)-4-methanesulfonyl-3-methyl-piperazin-1-yl)-2-methyl-butyramide], the inhibition constant (Ki) came out at 212 nM. `C[C@@H]1CN(CCC(C)(C(=O)NCc2ccc(C(F)(F)F)cc2)c2ccc(Cl)c(Cl)c2)CCN1S(C)(=O)=O` (stereo partly drawn) [Example 45, 2-(3,4-Dichloro-phenyl)-4-((R)-4-methanesulfonyl-3-methyl-piperazin-1-yl)-2-methyl-N-(4-trifluoromethyl-benzyl)-butyramide]: the Ki came to 33.3 nM. With `C[C@@H]1CN(CCC(C)(C(=O)NCc2cc(C(F)(F)F)ccc2F)c2ccc(Cl)c(Cl)c2)CCN1S(C)(=O)=O` (stereo partly drawn) [Example 46, 2-(3,4-Dichloro-phenyl)-N-(2-fluoro-5-trifluoromethyl-benzyl)-4-((R)-4-methanesulfonyl-3-methyl-piperazin-1-yl)-2-methyl-butyramide], the inhibition constant Ki was found to be 99.5 nM. Consider `CC(NC(=O)C(C)(CCN1CCN(S(C)(=O)=O)[C@H](C)C1)c1ccc(Cl)c(Cl)c1)c1ccc(Cl)cc1` (stereo partly drawn) [Example 47, N-[1-(4-Chloro-phenyl)-ethyl]-2-(3,4-dichloro-phenyl)-4-((R)-4-methanesulfonyl-3-methyl-piperazin-1-yl)-2-methyl-butyramide], for which the inhibition constant Ki turned out to be 15.9 nM. `COc1cccc(CN(C)C(=O)C(C)(CCN2CCN(S(C)(=O)=O)[C@H](C)C2)c2ccc(Cl)c(Cl)c2)c1` (stereo partly drawn) [Example 48, 2-(3,4-Dichloro-phenyl)-4-((R)-4-methanesulfonyl-3-methyl-piperazin-1-yl)-N-(3-methoxy-benzyl)-2,N-dimethyl-butyramide]: the Ki turned out to be 263 nM. With `C[C@@H]1CN(CCC(C)(C(=O)N(C)Cc2ccccc2Cl)c2ccc(Cl)c(Cl)c2)CCN1S(C)(=O)=O` (stereo partly drawn) [Example 49, N-(2-Chloro-benzyl)-2-(3,4-dichloro-phenyl)-4-((R)-4-methanesulfonyl-3-methyl-piperazin-1-yl)-2,N-dimethyl-butyramide], the Ki worked out at 88 nM. As for `CC(NC(=O)C(C)(CCN1CCN(S(C)(=O)=O)[C@H](C)C1)c1ccc(Cl)c(Cl)c1)c1ccc(Cl)c(Cl)c1` (stereo partly drawn) [Example 50, 2-(3,4-Dichloro-phenyl)-N-[1-(3,4-dichloro-phenyl)-ethyl]-4-((R)-4-methanesulfonyl-3-methyl-piperazin-1-yl)-2-methyl-butyramide], the Ki is 25.8 nM. As to `C[C@@H]1CN(CCC(C)(C(=O)NCc2cccc(OC(F)(F)F)c2)c2ccc(Cl)c(Cl)c2)CCN1S(C)(=O)=O` (stereo partly drawn) [Example 51, 2-(3,4-Dichloro-phenyl)-4-((R)-4-methanesulfonyl-3-methyl-piperazin-1-yl)-2-methyl-N-(3-trifluoromethoxy-benzyl)-butyramide], the Ki stood at 14.6 nM. Consider `C[C@@H]1CN(CCC(C)(C(=O)NCc2ccc(Cl)c(F)c2)c2ccc(Cl)c(Cl)c2)CCN1S(C)(=O)=O` (stereo partly drawn) [Example 52, N-(4-Chloro-3-fluoro-benzyl)-2-(3,4-dichloro-phenyl)-4-((R)-4-methanesulfonyl-3-methyl-piperazin-1-yl)-2-methyl-butyramide], for which the Ki amounted to 46.4 nM. Take `C[C@@H]1CN(CCC(C)(C(=O)NCc2ccc(OC(F)(F)F)cc2)c2ccc(Cl)c(Cl)c2)CCN1S(C)(=O)=O` (stereo partly drawn) [Example 53, 2-(3,4-Dichloro-phenyl)-4-((R)-4-methanesulfonyl-3-methyl-piperazin-1-yl)-2-methyl-N-(4-trifluoromethoxy-benzyl)-butyramide]: the Ki amounted to 22.8 nM. Under `C[C@@H]1CN(CCC(C)(C(=O)NCc2ccc(Cl)c(C(F)(F)F)c2)c2ccc(Cl)c(Cl)c2)CCN1S(C)(=O)=O` (stereo partly drawn) [Example 54, N-(4-Chloro-3-trifluoromethyl-benzyl)-2-(3,4-dichloro-phenyl)-4-((R)-4-methanesulfonyl-3-methyl-piperazin-1-yl)-2-methyl-butyramide] stands 17.5 nM; under `C[C@@H]1CN(CCC(C)(C(=O)N(C)Cc2ccc(C(F)(F)F)cc2)c2ccc(Cl)c(Cl)c2)CCN1S(C)(=O)=O` (stereo partly drawn) [Example 55, 2-(3,4-Dichloro-phenyl)-4-((R)-4-methanesulfonyl-3-methyl-piperazin-1-yl)-2,N-dimethyl-N-(4-trifluoromethyl-benzyl)-butyramide], 16.9 nM; under `C[C@@H]1CN(CCC(C)(C(=O)N(C)Cc2ccc(Cl)cc2)c2ccc(Cl)c(Cl)c2)CCN1S(C)(=O)=O` (stereo partly drawn) [Example 56, N-(4-Chloro-benzyl)-2-(3,4-dichloro-phenyl)-4-((R)-4-methanesulfonyl-3-methyl-piperazin-1-yl)-2,N-dimethyl-butyramide], 26.5 nM. As to `C[C@@H]1CN(CCC(C)(C(=O)NCc2ccc(C#N)cc2)c2ccc(Cl)c(Cl)c2)CCN1S(C)(=O)=O` (stereo partly drawn) [Example 57, N-(4-Cyano-benzyl)-2-(3,4-dichloro-phenyl)-4-((R)-4-methanesulfonyl-3-methyl-piperazin-1-yl)-2-methyl-butyramide], the inhibition constant (Ki) stood at 161 nM. For `C[C@@H]1CN(CCC(C)(C(=O)N(C)Cc2cccc(C(F)(F)F)c2)c2ccc(Cl)c(Cl)c2)CCN1S(C)(=O)=O` (stereo partly drawn) [Example 58, 2-(3,4-Dichloro-phenyl)-4-((R)-4-methanesulfonyl-3-methyl-piperazin-1-yl)-2,N-dimethyl-N-(3-trifluoromethyl-benzyl)-butyramide], the inhibition constant Ki amounted to 56.2 nM. Turning to `C[C@@H]1CN(CCC(C)(C(=O)N(C)Cc2cccc(Cl)c2)c2ccc(Cl)c(Cl)c2)CCN1S(C)(=O)=O` (stereo partly drawn) [Example 59, N-(3-Chloro-benzyl)-2-(3,4-dichloro-phenyl)-4-((R)-4-methanesulfonyl-3-methyl-piperazin-1-yl)-2,N-dimethyl-butyramide], the Ki was 103 nM. With `C[C@@H]1CN(CCC(C)(C(=O)N(C)Cc2cccc(F)c2)c2ccc(Cl)c(Cl)c2)CCN1S(C)(=O)=O` (stereo partly drawn) [Example 60, 2-(3,4-Dichloro-phenyl)-N-(3-fluoro-benzyl)-4-((R)-4-methanesulfonyl-3-methyl-piperazin-1-yl)-2,N-dimethyl-butyramide], the inhibition constant Ki was determined as 130 nM.

Take `C[C@H]1CN(CCC(C)(C(=O)N(C)Cc2ccc(-c3ccncc3)cc2)c2ccc(Cl)c(Cl)c2)CCN1S(C)(=O)=O` (stereo partly drawn) [Example 61, 2-(3,4-Dichloro-phenyl)-4-((S)-4-methanesulfonyl-3-methyl-piperazin-1-yl)-2,N-dimethyl-N-(4-pyridin-4-yl-benzyl)-butyramide]: the Ki amounted to 247 nM.
